From the supplement of paper PMC4862054

Columns and labels:
[1] = system: MDA-MB-231; settings: 72 h
Protocol: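 Drug sensitivity and resistance testing (DSRT) of breast cancer cell lines in 384-well plates, 5 concentrations in 10-fold dilutions over a compound-specific 10,000-fold range. After 72 h, cytotoxicity was read by CellTox Green fluorescence and viability by CellTiter-Glo luminescence (multiplexed), normalised to DMSO and benzethonium chloride controls. EC50 is the inflection point of the fitted dose-response curve (bottom asymptote free, so it can be relative for partial curves) and is censored at the highest tested concentration. Rows with DSS 0 (no meaningful response) were excluded.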

[2] = system: BT-474; assay: normalised response (% of control), CellTiter-Glo; higher = more viable cells (100 = DMSO, 0 = benzethonium chloride kill control); settings: incubation time: 72 h
Protocol: (§1)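 DSRT, 72 h incubation, CellTox Green / CellTiter-Glo readout. Signal is normalised to DMSO and benzethonium chloride controls. Value is the normalised response at the highest dose.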

[3] = system: BT-549; assay: as above; settings: incubation time: 72 h
Protocol: as §1

[4] = system: CAL-120; assay: as above; settings: incubation time: 72 h
Protocol: as §1

[5] = system: CAL-148; assay: as above; settings: incubation time: 72 h
Protocol: as §1

[6] = system: CAL-51; assay: as above; settings: incubation time: 72 h
Protocol: as §1

[7] = system: CAL-85-1; assay: as above; settings: incubation time: 72 h
Protocol: as §1

[8] = system: DU-4475; assay: as above; settings: incubation time: 72 h
Protocol: as §1

[9] = system: HCC1143; assay: as above; settings: incubation time: 72 h
Protocol: as §1

[10] = system: HCC1599; assay: as above; settings: incubation time: 72 h
Protocol: as §1

[11] = system: HCC1937; assay: as above; settings: incubation time: 72 h
Protocol: as §1

[12] = system: HDQ-P1; assay: as above; settings: incubation time: 72 h
Protocol: as §1

[13] = system: Hs578T; assay: as above; settings: incubation time: 72 h
Protocol: as §1

[14] = system: MCF-10A; assay: as above; settings: incubation time: 72 h
Protocol: as §1

[15] = system: MDA-MB-231; assay: as above; settings: incubation time: 72 h
Protocol: as §1

[16] = system: MDA-MB-436; assay: as above; settings: incubation time: 72 h
Protocol: as §1

[17] = system: MDA-MB-453; assay: as above; settings: incubation time: 72 h
Protocol: as §1

[18] = system: MDA-MB-468; assay: as above; settings: incubation time: 72 h
Protocol: as §1

[19] = system: MFM-223; assay: as above; settings: incubation time: 72 h
Protocol: as §1

[20] = system: SK-BR-3; assay: as above; settings: incubation time: 72 h
Protocol: as §1

CN(c1ccccc1CNc1nc(Nc2ccc3c(c2)CC(=O)N3)ncc1C(F)(F)F)S(C)(=O)=O
EC50, CellTox Green [1]: 1820 nM

COc1ncc(-c2ccc3nccc(-c4ccnnc4)c3c2)cc1NS(=O)(=O)c1ccc(F)cc1F
EC50, CellTox Green [1]: 157 nM

C[C@@]1(C(=O)Nc2ccc(F)nc2)CCCN1c1nc(Nc2cc(C3CC3)n[nH]2)c2cccn2n1
EC50, CellTox Green [1]: 1980 nM

COc1c(C)cnc(Cn2cnc3c(Cl)nc(N)nc32)c1C [BIIB021]
EC50, CellTox Green [1]: 928 nM

CC(C)C[C@H](NC(=O)[C@H](Cc1ccccc1)NC(=O)c1cnccn1)B(O)O [Bortezomib]
EC50, CellTox Green [1]: 13.9 nM

C#Cc1cccc(Nc2ncnc3cc(OC)c(OCCCCCCC(=O)NO)cc23)c1 [CUDC-101]
EC50, CellTox Green [1]: 403 nM

COc1cccc2c1C(=O)c1c(O)c3c(c(O)c1C2=O)C[C@@](O)(C(C)=O)C[C@@H]3O[C@H]1C[C@H](N)[C@H](O)[C@H](C)O1 [Daunorubicin] (1000 nM)
normalised response [2]: 19%
normalised response [3]: 10.7%
normalised response [4]: 41.2%
normalised response [5]: 0.79%
normalised response [6]: 3.08%
normalised response [7]: 7.68%
normalised response [8]: 0.14%
normalised response [9]: 23.9%
normalised response [10]: 19.3%
normalised response [11]: 32.1%
normalised response [12]: 27.9%
normalised response [13]: 35.1%
normalised response [14]: 27.1%
normalised response [15]: 8.81%
normalised response [16]: 22.8%
normalised response [17]: 4.31%
normalised response [18]: 8.42%
normalised response [19]: 34.7%
normalised response [20]: 11.6%

CN1CCN(c2ccc3nc(-c4c(N)c5c(F)cccc5[nH]c4=O)[nH]c3c2)CC1 [Dovitinib] (10000 nM)
normalised response [2]: 91.5%
normalised response [3]: 95.6%
normalised response [4]: 89.4%
normalised response [5]: 88.1%
normalised response [6]: 127%
normalised response [7]: 95.9%
normalised response [8]: 99.9%
normalised response [9]: 90.1%
normalised response [10]: 102%
normalised response [11]: 88%
normalised response [12]: 89.8%
normalised response [13]: 95.8%
normalised response [14]: 100%
normalised response [15]: 94%
normalised response [16]: 87.6%
normalised response [17]: 96.4%
normalised response [18]: 78.1%
normalised response [19]: 77.6%
normalised response [20]: 91.5%

O=c1[nH]c(=O)n([C@H]2C[C@H](O)[C@@H](CO)O2)cc1F [Floxuridine] (10000 nM)
normalised response [2]: 59%
normalised response [3]: 80.1%
normalised response [4]: 33.5%
normalised response [5]: 95.7%
normalised response [6]: 29.4%
normalised response [7]: 23.6%
normalised response [8]: 70.7%
normalised response [9]: 77.6%
normalised response [10]: 58.1%
normalised response [11]: 42%
normalised response [12]: 82.8%
normalised response [13]: 23%
normalised response [14]: 84.7%
normalised response [15]: 67.9%
normalised response [16]: 57.3%
normalised response [17]: 97.6%
normalised response [18]: 60.7%
normalised response [19]: 103%
normalised response [20]: 44.8%

O=c1[nH]cc(F)c(=O)[nH]1 [Fluorouracil] (10000 nM)
normalised response [2]: 92.7%
normalised response [3]: 91.7%
normalised response [4]: 95.5%
normalised response [5]: 88.6%
normalised response [6]: 85.3%
normalised response [7]: 57.5%
normalised response [8]: 99.5%
normalised response [9]: 76%
normalised response [10]: 93.8%
normalised response [11]: 72.8%
normalised response [12]: 91.8%
normalised response [13]: 93.7%
normalised response [14]: 88.4%
normalised response [15]: 82.2%
normalised response [16]: 75.8%
normalised response [17]: 94.8%
normalised response [18]: 77.4%
normalised response [19]: 105%
normalised response [20]: 74.8%

C[C@@H]1C=C2C(=O)O[C@@H]3CC[C@H](C1)[C@]23O [Galiellalactone] (50000 nM)
normalised response [2]: 108%
normalised response [3]: 44.3%
normalised response [4]: 105%
normalised response [5]: 124%
normalised response [6]: 71.1%
normalised response [7]: 72.2%
normalised response [8]: 102%
normalised response [9]: 100%
normalised response [10]: 90.3%
normalised response [11]: 107%
normalised response [12]: 93.9%
normalised response [13]: 101%
normalised response [14]: 106%
normalised response [15]: 106%
normalised response [16]: 89.5%
normalised response [17]: 105%
normalised response [18]: 39.1%
normalised response [19]: 105%
normalised response [20]: 107%

COC1=C2C[C@@H](C)C[C@H](OC)[C@H](O)[C@@H](C)/C=C(\C)[C@H](OC(N)=O)[C@@H](OC)/C=C\C=C(/C)C(=O)NC(=CC1=O)C2=O [Geldanamycin] (10000 nM)
normalised response [2]: 8.17%
normalised response [3]: 19.2%
normalised response [4]: 26.7%
normalised response [5]: 33.4%
normalised response [6]: 6.33%
normalised response [7]: 10.5%
normalised response [8]: 0.14%
normalised response [9]: 24.1%
normalised response [10]: 45%
normalised response [11]: 24.2%
normalised response [12]: 19%
normalised response [13]: 16.8%
normalised response [14]: 10.7%
normalised response [15]: 3.82%
normalised response [16]: 24.4%
normalised response [17]: 29.5%
normalised response [18]: 7.56%
normalised response [19]: 20.3%
normalised response [20]: 30.7%

CS(=O)(=O)CCNCc1ccc(-c2ccc3ncnc(Nc4ccc(OCc5cccc(F)c5)c(Cl)c4)c3c2)o1 [Lapatinib] (1000 nM)
normalised response [2]: 96.8%
normalised response [3]: 105%
normalised response [4]: 105%
normalised response [5]: 96.3%
normalised response [6]: 120%
normalised response [7]: 73.5%
normalised response [8]: 106%
normalised response [9]: 95.4%
normalised response [10]: 97.1%
normalised response [11]: 101%
normalised response [12]: 69.5%
normalised response [13]: 101%
normalised response [14]: 43.5%
normalised response [15]: 105%
normalised response [16]: 103%
normalised response [17]: 80.5%
normalised response [18]: 83.6%
normalised response [19]: 99.5%
normalised response [20]: 28.5%

Cn1cnc2c(F)c(Nc3ccc(Br)cc3F)c(C(=O)NOCCO)cc21 [MEK-162] (1000 nM)
normalised response [2]: 73.9%
normalised response [3]: 92.7%
normalised response [4]: 86.6%
normalised response [5]: 95.9%
normalised response [6]: 76.4%
normalised response [7]: 78.8%
normalised response [8]: 1.31%
normalised response [9]: 86.5%
normalised response [10]: 100%
normalised response [11]: 86%
normalised response [12]: 71.5%
normalised response [13]: 90%
normalised response [14]: 38.9%
normalised response [15]: 74.8%
normalised response [16]: 94%
normalised response [17]: 97.9%
normalised response [18]: 88.3%
normalised response [19]: 96.2%
normalised response [20]: 94.5%
